Drawing on PubChem BioAssay AID1549 (Sanford-Burnham Center for Chemical Genomics, 2009), this text covers Kd for 98 molecules.

Active and inactive are the calls of the source. No rule for the calls is given here.

The target in this test is Influenza A virus M2 proton channel (A/TW/4845/1999 H1N1). The test is described as follows: M2 proton channel binding, NMR based, influenza A virus H1N1 strain (AID 1549). The settings on record: NMR binding screen, M2 protein.
Regarding `O=C(O)C1CSC(c2cccnc2)N1` (stereo not drawn), the Kd is > 4 mM (inactive). The same measure for `O=C(O)C1CCCN1Cc1c[nH]c2ccccc12` (stereo not drawn): > 4 mM (inactive). With `COC1=CC(C)[C@@H]2C[C@H]3OC(=O)C[C@H]4C(C)=C(OC)C(=O)C([C@@]34C)[C@@]2(C)C1=O` (stereo partly drawn) the figure was > 4 mM (inactive); with `Nc1cccc(S(=O)(=O)N2CCCC2)c1`, > 4 mM (inactive); with `CC(=O)O[C@H]1CC[C@@]2(C)C(CC[C@]3(C)C2CC=C2C4CC(C)(C)CC[C@]4(C)CC[C@]23C)C1(C)C` (stereo partly drawn), > 4 mM (inactive). `C=CC(C1=CC(=O)C=CC1=O)c1ccccc1` (stereo not drawn): the Kd was > 4 mM (inactive). Consider `S=C(NC1CC1)NN1CCOCC1`, for which the Kd was > 4 mM (inactive). For the molecule `Nc1ncc2[nH]cnc2n1`, the Kd is > 4 mM (inactive). With `CN1CCC(O)N1C(=O)c1ccccc1O` (stereo not drawn) the figure was > 4 mM (inactive). The same measure for `Cc1csc(NC(=O)c2ccoc2C)n1`: > 4 mM (inactive); for `COCC(=O)Nc1cccc(Br)c1`: > 4 mM (inactive).

Turning to `Oc1cc(O)c2c(c1)O[C@H](c1ccc(O)c(O)c1)[C@@H](O)C2`, the Kd is > 4 mM (inactive).

Consider `NC(=O)Cn1cnc(-c2ccc(F)cc2)c1`, for which the Kd was > 4 mM (inactive). The same measure for `CC(=O)c1cc(C)ccc1O`: > 4 mM (inactive); for `CC(=O)Nc1cc(S(=O)(=O)N(C)C)ccc1Cl`: > 4 mM (inactive); for `Cn1nnc2cc(C(=O)NC3CCCCC3)ccc21`: > 4 mM (inactive). With `CNc1nnc(Cc2csc(N)n2)s1` the figure was > 4 mM (inactive); with `Cc1cc([N+](=O)[O-])cc[n+]1[O-]`, > 4 mM (inactive). With `Nc1ncnc(NC2CCS(=O)(=O)C2)c1[N+](=O)[O-]` (stereo not drawn) the figure was > 4 mM (inactive).

As for `NC(=O)c1cccc(Cl)n1`, the Kd is > 4 mM (inactive). The same measure for `Cc1noc(C)c1C(=O)N1CCN(c2ncccn2)CC1`: > 4 mM (inactive); for `COc1ccc(NC(=O)C(N)=O)cc1Cl`: > 4 mM (inactive); for `O=C(O)CCc1c[nH]c2ccccc12`: > 4 mM (inactive).

As for `O=C1CNC(=O)N1Cc1ccc(F)cc1`, the Kd is > 4 mM (inactive).

On to `O=C(NCc1ccco1)c1ccc(Br)s1`, for which the Kd was > 4 mM (inactive). With `COc1cc([C@@H]2c3cc4c(cc3C(OC3O[C@@H]5COC(C)O[C@H]5[C@H](O)[C@H]3O)C3COC(=O)[C@@H]32)OCO4)cc(OC)c1O` (stereo partly drawn) the figure was > 4 mM (inactive). With `CC(=O)Nc1ccc(C(=O)n2nc(C)cc2C)cc1` the figure was > 4 mM (inactive); with `COc1ccc(/C=C2/C(=O)N=C(N)N2C)cc1OC`, > 4 mM (inactive). With `Nc1cccc(-n2cccc2)c1` the figure was > 4 mM (inactive); with `Cc1nc(-c2cc(C(=O)O)no2)cs1`, > 4 mM (inactive); with `Cc1nn(C)c(C)c1NC(=S)NC1CCCC1`, > 4 mM (inactive).

As to `N#Cc1cnc(N2CCCCC2)nc1N`, the Kd is > 4 mM (inactive).

On to `Cc1c(N=CN(C)C)c(=O)n(-c2ccccc2)n1C`, for which the Kd was > 4 mM (inactive). The same measure for `NCc1cccc2c1OCCCO2`: > 4 mM (inactive). With `CC(=O)O[C@H]1C[C@@H](OC(C)=O)C(C)(C)C2C[C@@H](O)[C@]3(C)C(CC[C@@]4(C)[C@H](c5ccoc5)OC(=O)[C@H]5O[C@]543)[C@]21C` (stereo partly drawn) the figure was > 4 mM (inactive); with `CCN=Cc1c(O)n(-c2ccccc2C)c(=O)[nH]c1=O`, > 4 mM (inactive).

Regarding `O=C(O)CCCN1CNC(=S)NC1`, the Kd was > 4 mM (inactive). The same measure for `O=C(O)CCc1ccc2c(c1)OCO2`: > 4 mM (inactive). With `O=C1CCC(=O)N1c1cccc([N+](=O)[O-])c1` the figure was > 4 mM (inactive); with `Cc1onc(-c2ccccc2)c1CO`, > 4 mM (inactive).

`NC(=O)c1ccc(SCC(=O)O)c([N+](=O)[O-])c1`: the Kd was > 4 mM (inactive). As to `CC(=O)Nc1ccc(S(=O)(=O)NC(N)=O)cc1`, the Kd was > 4 mM (inactive). The same measure for `OCc1cc2ccccc2o1`: > 4 mM (inactive); for `Nc1cc(-c2ccco2)[nH]n1`: > 4 mM (inactive). The same measure for `C[C@H]1O[C@@H](O[C@H]2[C@@H](O)C[C@H](O[C@H]3[C@@H](O)C[C@H](O[C@H]4CC[C@]5(C)C6C[C@@H](O)[C@]7(C)[C@@H](C8=CC(=O)OC8)CC[C@]7(O)C6CC[C@@H]5C4)O[C@@H]3C)O[C@@H]2C)C[C@H](O)[C@@H]1O` (stereo partly drawn): > 4 mM (inactive).

Consider `COC1=CC(=O)C(O)=C/C1=C\C=C\c1ccccc1`, for which the Kd is > 4 mM (inactive). The same measure for `O=C(Nc1ccccn1)c1cc(-n2cnnc2)ccc1Cl`: > 4 mM (inactive); for `O=C(c1ccccc1)c1ccccc1C(=O)N1CCCC1`: > 4 mM (inactive); for `O=C1c2ccncc2C(=O)N1CO`: > 4 mM (inactive).

`CC(=O)N1CCc2ccccc2C1CC(=O)O` (stereo not drawn): the Kd is > 4 mM (inactive).

For `CC(=O)O[C@H]1C[C@@H](OC(C)=O)C(C)(C)C2C[C@@H](OC(C)=O)[C@]3(C)C(CC[C@@]4(C)[C@H](c5ccoc5)C(=O)[C@H]5O[C@]543)[C@]21C` (stereo partly drawn), the Kd was > 4 mM (inactive). With `CCOC(=O)CC1NCCNC1=O` (stereo not drawn) the figure was > 4 mM (inactive); with `Cc1scc(C(=O)Nc2ccon2)c1-c1ccccc1`, > 4 mM (inactive). With `C[N+](C)(C)CC(=O)[O-]` the figure was > 4 mM (inactive); with `CN1CCCn2c1nc1c2c(=O)[nH]c(=O)n1C`, > 4 mM (inactive); with `CC(C)CCCC(C)C1CCC2C3C[C@@H](O)[C@@]4(O)C[C@@H](O)CC[C@]4(C)C3CC[C@]12C` (stereo partly drawn), > 4 mM (inactive). With `NC(=O)C1CCN(c2ncnc(N)c2[N+](=O)[O-])CC1` the figure was > 4 mM (inactive).

Regarding `c1coc(CNc2nc(-c3ccncc3)cs2)c1`, the Kd is > 4 mM (inactive).

For `NC(=O)c1ccc(-c2ccccn2)s1`, the Kd was > 4 mM (inactive). With `CC1=C2[C@H]3OC(=O)[C@@H](C)[C@@H]3CC[C@@]2(C)C=CC1=O` the figure was > 4 mM (inactive). With `CCOC(=O)c1csc(N)n1` the figure was > 4 mM (inactive); with `O=P1(O)c2ccccc2Nc2ccccc21`, > 4 mM (inactive). As for `COc1cc2c(cc1OC)C(C)NCC2` (stereo not drawn), the Kd was > 4 mM (inactive). The same measure for `NC[C@H]1O[C@H](O[C@H]2[C@H](O)[C@@H](O[C@H]3O[C@H](CO)[C@@H](O)[C@H](N)[C@H]3O)[C@H](N)C[C@@H]2N)[C@H](N)[C@@H](O)[C@@H]1O`: > 4 mM (inactive); for `O=C(Nc1ccccc1)NC1CCS(=O)(=O)C1` (stereo not drawn): > 4 mM (inactive).

With `O=S(=O)(Nc1cccc2cn[nH]c12)c1ccc(F)cc1`, the Kd is > 4 mM (inactive). The same measure for `CC(C)(C)CC(=O)N1CCC(C(N)=O)CC1`: > 4 mM (inactive); for `O=C(CSc1nc2ccccc2[nH]1)N1CCCCC1`: > 4 mM (inactive). The same measure for `CC(=O)Nc1ccncc1NC(C)=O`: > 4 mM (inactive); for `Cc1cccc(NC(=O)c2ccccc2C(=O)O)c1`: > 4 mM (inactive); for `COc1ccc(C2(C)NC(=O)NC2=O)cc1` (stereo not drawn): > 4 mM (inactive). The same measure for `COc1ccc(-c2ccc(SCC(N)=O)nn2)cc1`: > 4 mM (inactive); for `CC(=O)Nc1nnc(-c2ccccc2)o1`: > 4 mM (inactive); for `S=C(c1ccc(N2CCOCC2)cc1)N1CCOCC1`: > 4 mM (inactive). Consider `CC1CCC2(OC1)OC1CC3C4CC[C@H]5C[C@@H](O)CC[C@]5(C)C4CC(=O)[C@]3(C)C1C2C` (stereo partly drawn), for which the Kd was > 4 mM (inactive). The same measure for `O=C1CN2C(=N1)N(Cc1ccccc1)c1ccccc12`: > 4 mM (inactive). With `CC1=NN(c2ccc(C)cc2)C(=O)C1` the figure was > 4 mM (inactive); with `Fc1ccc(F)c(CN2CCN(c3ncccn3)CC2)c1`, > 4 mM (inactive). With `O=c1[nH]c(=S)[nH]c2c1CCC2` the figure was > 4 mM (inactive); with `O=C1C[C@@H](c2ccccc2)Oc2cc(O)cc(O)c21`, > 4 mM (inactive); with `CSc1ccc(C(=S)N2CCN(C)CC2)cc1`, > 4 mM (inactive). For `O=C(NCCO)c1cc2ccccc2cc1O`, the Kd was > 4 mM (inactive). In the case of `CC(C)=CCCC1(C)C=Cc2c(O)c3c(c(CC=C(C)C)c2O1)OC12C(=CC4CC1C(C)(C)OC2(C/C=C(/C)C(=O)O)C4O)C3=O` (stereo not drawn), the Kd was > 4 mM (inactive).

Regarding `COc1ccc2c(=O)c(CC(=O)O)coc2c1`, the Kd was > 4 mM (inactive). With `O=S(=O)(c1ccc(F)c(Cl)c1)N1CCCC1` the figure was > 4 mM (inactive); with `CC1(C)O[C@H]2[C@H](O)C[C@](O)(C(N)=O)C[C@H]2O1`, > 4 mM (inactive). With `c1ccc(SCc2nc(-c3ccncc3)no2)cc1` the figure was > 4 mM (inactive). The same measure for `Clc1ccc(-c2noc(CN3CCCC3)n2)cc1`: > 4 mM (inactive). In the case of `O=C(c1ccccc1)c1cncc(Br)c1`, the Kd was > 4 mM (inactive). With `O=[n+]1c(CO)c(CO)n([O-])c2ccccc21` the figure was > 4 mM (inactive); with `O=C(Nc1ccncc1)c1c(F)cccc1F`, > 4 mM (inactive). With `COc1ccc(S(N)(=O)=O)cc1` the figure was > 4 mM (inactive); with `OC1(c2ccc(Cl)cc2)CCNCC1`, > 4 mM (inactive); with `CNC(=O)n1ccc(C(=O)N2CCCCC2)n1`, > 4 mM (inactive).

Regarding `O=c1/c(=C\c2cccnc2)sc2nc3ccccc3n12`, the Kd was > 4 mM (inactive). The same measure for `O=C(O)C1CSC(c2ccco2)N1` (stereo not drawn): > 4 mM (inactive). The same measure for `CC1O[C@@H](Oc2c(-c3ccc(O)c(O)c3)oc3cc(O)cc(O)c3c2=O)[C@H](O)[C@H](O)[C@H]1O` (stereo partly drawn): > 4 mM (inactive); for `OCc1ccc(-n2cncn2)cc1`: > 4 mM (inactive).

In general, Kd refers to a measure of binding affinity in units of concentration.
